Data as given in patent publication US20240398757A1 (COCRYSTAL PHARMA, INC., priority 2022, published 2024).

Molecular target: T1, SARS2 protease (Severe acute respiratory syndrome coronavirus 2, UniProt P0DTD1)
T1 construct: SARS2 protease was added to a final concentration of 30 nM
Experiment: SARS-CoV-2 protease inhibition assay (SARS2 FRET protease assay)
Format: biochemical
Conditions: IC50 (μM), SARS2 protease 30 nM, peptide substrate 1.3 μM, 120 minutes at 37° C., compounds 20 μM to 0.075 nM

Structure (SMILES)	IC50 [nM]
CCNC(=O)C(=O)[C@H](C[C@@H]1CCNC1=O)NC(=O)[C@H](Cc1ccccc1)NC(=O)OC(C1CCCCC1)C(F)(F)c1cccc(Cl)c1 (stereo partly drawn) [Compound A255, 2-(3-Chlorophenyl)-1-cyclohexyl-2,2-difluoroethyl ((S)-1-(((S)-4-(ethylamino)-3,4-dioxo-1-((S)-2-oxopyrrolidin-3-yl)butan-2-yl)amino)-1-oxo-3-phenylpropan-2-yl)carbamate]	208
CCCC[C@H](NC(=O)OC(c1ccncc1)C(F)(F)c1cccc(Cl)c1)C(=O)N[C@H](C=O)C[C@@H]1CCNC1=O (stereo partly drawn) [Compound A256, 2-(3-Chlorophenyl)-2,2-difluoro-1-(pyridin-4-yl)ethyl ((S)-1-oxo-1-(((S)-1-oxo-3-((S)-2-oxopyrrolidin-3-yl)propan-2-yl)amino)hexan-2-yl)carbamate]	1
CCCC[C@H](NC(=O)OC(c1ccncc1)C(F)(F)c1cccc(Cl)c1)C(=O)N[C@@H](C[C@@H]1CCNC1=O)C(=O)C(=O)NC1CC1 (stereo partly drawn) [Compound A257, 2-(3-Chlorophenyl)-2,2-difluoro-1-(pyridin-4-yl)ethyl ((S)-1-(((S)-4-(cyclopropylamino)-3,4-dioxo-1-((S)-2-oxopyrrolidin-3-yl)butan-2-yl)amino)-1-oxohexan-2-yl)carbamate]	0.1
CCCC[C@H](NC(=O)CC(O)(Cc1cccc(Cl)c1)c1ccccc1)C(=O)N[C@@H](C[C@@H]1CCNC1=O)C(=O)C(=O)NCC (stereo partly drawn) [Compound A259, (2S)-2-(4-(3-chlorophenyl)-3-hydroxy-3-phenylbutanamido)-N—((S)-4-(ethylamino)-3,4-dioxo-1-((S)-2-oxopyrrolidin-3-yl)butan-2-yl)hexanamide]	413
CCCC[C@H](NC(=O)CC(O)(c1ccccc1)C(C)(C)c1cccc(Cl)c1)C(=O)N[C@H](C=O)C[C@@H]1CCNC1=O (stereo partly drawn) [Compound A260, (2S)-2-(4-(3-chlorophenyl)-3-hydroxy-4-methyl-3-phenylpentanamido)-N—((S)-1-oxo-3-((S)-2-oxopyrrolidin-3-yl)propan-2-yl)hexanamide]	2
CCCC[C@H](NC(=O)CC(O)(c1ccccc1)C(C)(C)c1cccc(Cl)c1)C(=O)N[C@@H](C[C@@H]1CCNC1=O)C(=O)C(=O)NCC (stereo partly drawn) [Compound A261, (2S)-2-(4-(3-chlorophenyl)-3-hydroxy-4-methyl-3-phenylpentanamido)-N—((S)-4-(ethylamino)-3,4-dioxo-1-((S)-2-oxopyrrolidin-3-yl)butan-2-yl)hexanamide]	1090
O=C[C@H](C[C@@H]1CCNC1=O)NC(=O)[C@H](Cc1ccc(Cl)cc1)NC(=O)OC(c1ccccc1)C(F)(F)c1cccc(Cl)c1 (stereo partly drawn) [Compound A262, 2-(3-chlorophenyl)-2,2-difluoro-1-phenylethyl ((S)-3-(4-chlorophenyl)-1-oxo-1-(((S)-1-oxo-3-((S)-2-oxopyrrolidin-3-yl)propan-2-yl)amino)propan-2-yl)carbamate]	203
CCNC(=O)C(=O)[C@H](C[C@@H]1CCNC1=O)NC(=O)[C@H](Cc1ccc(Cl)cc1)NC(=O)OC(c1ccccc1)C(F)(F)c1cccc(Cl)c1 (stereo partly drawn) [Compound A263, 2-(3-chlorophenyl)-2,2-difluoro-1-phenylethyl ((S)-3-(4-chlorophenyl)-1-(((S)-4-(ethylamino)-3,4-dioxo-1-((S)-2-oxopyrrolidin-3-yl)butan-2-yl)amino)-1-oxopropan-2-yl)carbamate]	7020
CC(C)C(OC(=O)N[C@@H](Cc1ccccc1)C(=O)N[C@H](C=O)C[C@@H]1CCNC1=O)C(F)(F)c1cccc(Cl)c1 (stereo partly drawn) [Compound A266, 1-(3-Chlorophenyl)-1,1-difluoro-3-methylbutan-2-yl ((S)-1-oxo-1-(((S)-1-oxo-3-((S)-2-oxopyrrolidin-3-yl)propan-2-yl)amino)-3-phenylpropan-2-yl)carbamate]	0.1
CCCC[C@H](NC(=O)O[C@@H](c1cccnc1)C(F)(F)c1cccc(Cl)c1)C(=O)N[C@H](C=O)C[C@@H]1CCNC1=O [Compound A267, (S)-2-(3-chlorophenyl)-2,2-difluoro-1-(pyridin-3-yl)ethyl ((S)-1-oxo-1-(((S)-1-oxo-3-((S)-2-oxopyrrolidin-3-yl)propan-2-yl)amino)hexan-2-yl)carbamate]	9
CCCC[C@H](NC(=O)O[C@H](c1cccnc1)C(F)(F)c1cccc(Cl)c1)C(=O)N[C@H](C=O)C[C@@H]1CCNC1=O [Compound A268, (R)-2-(3-chlorophenyl)-2,2-difluoro-1-(pyridin-3-yl)ethyl ((S)-1-oxo-1-(((S)-1-oxo-3-((S)-2-oxopyrrolidin-3-yl)propan-2-yl)amino)hexan-2-yl)carbamate]	0.08
CCCC[C@H](NC(=O)OC(c1ccccc1)C(F)(F)c1cccc(Cl)c1)C(=O)N[C@@H](C[C@@H]1CCNC1=O)C(=O)c1nc2ccccc2o1 (stereo partly drawn) [Compound A269, 2-(3-chlorophenyl)-2,2-difluoro-1-phenylethyl ((S)-1-(((S)-1-(benzo[d]oxazol-2-yl)-1-oxo-3-((S)-2-oxopyrrolidin-3-yl)propan-2-yl)amino)-1-oxohexan-2-yl)carbamate]	418
CCCC[C@H](NC(=O)OC(c1ccccc1)C(F)(F)c1cccc(Cl)c1)C(=O)N[C@@H](C[C@@H]1CCNC1=O)C(=O)C(=O)NCCN(CC)CC (stereo partly drawn) [Compound A271]	936
CC(C)C[C@H](NC(=O)O[C@@H](C(C)C)C(F)(F)c1cccc(-c2ccccc2)c1)C(=O)N[C@H](C=O)C[C@@H]1CCNC1=O [Compound A272, (S)-1-([1,1′-biphenyl]-3-yl)-1,1-difluoro-3-methylbutan-2-yl ((S)-4-methyl-1-oxo-1-(((S)-1-oxo-3-((S)-2-oxopyrrolidin-3-yl)propan-2-yl)amino)pentan-2-yl)carbamate]	1
CC(C)C[C@H](NC(=O)O[C@@H](c1ccccc1)C(F)(F)c1cccc(C(C)C)c1)C(=O)N[C@H](C=O)C[C@@H]1CCNC1=O [Compound A275, (S)-2,2-difluoro-2-(3-isopropylphenyl)-1-phenylethyl ((S)-4-methyl-1-oxo-1-(((S)-1-oxo-3-((S)-2-oxopyrrolidin-3-yl)propan-2-yl)amino)pentan-2-yl)carbamate]	1
CCNC(=O)C(=O)[C@H](C[C@@H]1CCNC1=O)NC(=O)[C@H](Cc1ccccc1)NC(=O)OCCCc1ccccc1 [Compound A276, 3-Phenylpropyl ((S)-1-(((S)-4-(ethylamino)-3,4-dioxo-1-((S)-2-oxopyrrolidin-3-yl)butan-2-yl)amino)-1-oxo-3-phenylpropan-2-yl) carbamate]	4150
O=C[C@H](C[C@@H]1CCNC1=O)NC(=O)[C@H](Cc1ccccc1)NC(=O)OCCCc1ccccc1 [Compound A277, 3-Phenylpropyl ((S)-1-oxo-1-(((S)-1-oxo-3-((S)-2-oxopyrrolidin-3-yl)propan-2-yl)amino)-3-phenylpropan-2-yl) carbamate]	218
O=C(N[C@@H](CC1CCCCC1)C(=O)N[C@@H](C[C@@H]1CCNC1=O)C(=O)c1nc2ccccc2o1)OC(c1ccccc1)C(F)(F)c1cccc(Cl)c1 (stereo partly drawn) [Compound A278, 2-(3-chlorophenyl)-2,2-difluoro-1-phenylethyl ((S)-1-(((S)-1-(benzo[d]oxazol-2-yl)-1-oxo-3-((S)-2-oxopyrrolidin-3-yl)propan-2-yl)amino)-3-cyclohexyl-1-oxopropan-2-yl)carbamate]	249
CC(C)(c1cccc(Cl)c1)C(OC(=O)N[C@@H](Cc1ccc(Cl)c(Cl)c1)C(=O)N[C@H](C=O)C[C@@H]1CCNC1=O)c1ccccc1 (stereo partly drawn) [Compound A279, 2-(3-chlorophenyl)-2-methyl-1-phenylpropyl ((S)-3-(3,4-dichlorophenyl)-1-oxo-1-(((S)-1-oxo-3-((S)-2-oxopyrrolidin-3-yl)propan-2-yl)amino)propan-2-yl)carbamate]	423
CCNC(=O)C(=O)[C@H](C[C@@H]1CCNC1=O)NC(=O)[C@H](Cc1ccc(Cl)c(Cl)c1)NC(=O)OC(c1ccccc1)C(C)(C)c1cccc(Cl)c1 (stereo partly drawn) [Compound A280, 2-(3-chlorophenyl)-2-methyl-1-phenylpropyl ((S)-3-(3,4-dichlorophenyl)-1-(((S)-4-(ethylamino)-3,4-dioxo-1-((S)-2-oxopyrrolidin-3-yl)butan-2-yl)amino)-1-oxopropan-2-yl)carbamate]	4500
CCC1(C[C@H](NC(=O)OC(c2ccccc2)C(F)(F)c2cccc(Cl)c2)C(=O)N[C@@H](C[C@@H]2CCNC2=O)C(=O)C(=O)NC2CC2)CC1 (stereo partly drawn) [Compound A281, 2-(3-chlorophenyl)-2,2-difluoro-1-phenylethyl ((S)-1-(((S)-4-(cyclopropylamino)-3,4-dioxo-1-((S)-2-oxopyrrolidin-3-yl)butan-2-yl)amino)-3-(1-ethylcyclopropyl)-1-oxopropan-2-yl)carbamate]	1
CC(C)C[C@H](NC(=O)O[C@@H](c1ccccc1)C(F)(F)c1cccc(Cl)c1)C(=O)N[C@@H](C[C@@H]1CCNC1=O)C(=O)C(N)=O [Compound A282, (S)-2-(3-chlorophenyl)-2,2-difluoro-1-phenylethyl ((S)-1-(((S)-4-amino-3,4-dioxo-1-((S)-2-oxopyrrolidin-3-yl)butan-2-yl)amino)-4-methyl-1-oxopentan-2-yl)carbamate]	1
CCCC[C@H](NC(=O)O[C@@H](c1ccccc1)C(F)(F)c1cccc(F)c1)C(=O)N[C@@H](C[C@@H]1CCNC1=O)C(=O)C(=O)NCC [Compound A283, (S)-2,2-difluoro-2-(3-fluorophenyl)-1-phenylethyl ((S)-1-(((S)-4-(ethylamino)-3,4-dioxo-1-((S)-2-oxopyrrolidin-3-yl)butan-2-yl)amino)-1-oxohexan-2-yl)carbamate]	122
CCCC[C@H](NC(=O)O[C@H](c1ccccc1)C(F)(F)c1cccc(F)c1)C(=O)N[C@@H](C[C@@H]1CCNC1=O)C(=O)C(=O)NCC [Compound A284, (R)-2,2-difluoro-2-(3-fluorophenyl)-1-phenylethyl ((S)-1-(((S)-4-(ethylamino)-3,4-dioxo-1-((S)-2-oxopyrrolidin-3-yl)butan-2-yl)amino)-1-oxohexan-2-yl)carbamate]	8
